In data set [1] the test system is subcutaneous implantation tumor of B16-F1 melanoma. Kind of data set: Subcutaneous implantation model of B16-F1 melanoma in immunocompetent mice. It counts as in vivo, mice (C57BL/6). As for the experimental part:
A subcutaneous implantation model of B16-F1 melanoma in immunocompetent mice (C57BL/6, female, 6-8 weeks) was established to study the inhibitory activity of compound WYC-103 on the tumor in situ. Firstly, B16-F1 cells were incubated within 3D fibrin gel (90-Pa in gel stiffness) that was immersed in culture medium for 5 days, and the desired tumor-repopulating cells were screened. Subsequently, the culture medium was respectively treated with collagenase and neutral protease II, and the tumor-repopulating cells of B16-F1 melanoma were released, then the obtained repopulating cells were transferred to a freshly prepared medium to be re-suspended and maintained at single-cell state.
Six immunocompetent mice were randomly divided into two groups which were respectively the treatment group and the DMSO negative control group. Mice were subcutaneously injected with 30,000 tumor-repopulating cells of melanoma to establish a subcutaneous implantation model of melanoma. Subsequently, Mice were administered via tail vein injection based on the body weight and the blood volume of the mice. From day 0, mice in the treatment group were administrated with WYC-103 once every 2 days at a blood concentration of 10 μM and fed normally, observing the survival of the mice. […] According to the statistical analysis, the tumor volume in the treatment group was only 50% of the control group (FIG. 12).
This experiment was repeated in order to further confirm the inhibitory activity of WYC-103 on subcutaneous implantation tumor of B16-F1 melanoma. In the present experiment, 18 immunocompetent mice (C57BL/6, female, 6-8 weeks) were randomly divided into three groups which were respectively the treatment group, the positive control group (BMS-453 was used as the positive drug) and the DMSO negative control group. Subsequently, Mice were administered via tail vein injection based on the body weight and the blood volume of the mice. From day 0, mice in the treatment group were administrated with WYC-103 once every 2 days at a blood concentration of 10 μM; mice in the positive control group were administered with BMS-453 (WYC-114) as the positive drug in the same route of administration; mice in the negative control group was administered with 0.1% DMSO in a same route of administration.

Data set [2] concerns tumor-repopulating cells of B16-F1 melanoma. Description: Inhibitory activity on proliferation of tumor-repopulating cells (TRCs) of B16-F1 melanoma in 3D fibrin gel. The settings on record: Mus musculus; for IC50: B16-F1, dose-response curve, colony tumor volume, read-out: IC50 of inhibition on TRCs of B16-F1 melanoma/μM. It counts as cell-based. As for the experimental part: B16-F1 Melanoma cells were incubated with 3D fibrin gel medium (90-Pa) for 5 days, and the desired tumor-repopulating cells of melanoma were screened (Nat. Mater. 2012, 11, 734). Subsequently, the culture medium was respectively treated with collagenase and neutral protease II, and the tumor-repopulating cells of B16-F1 melanoma were released, then the obtained repopulating cells were transferred to a freshly prepared medium to be resuspended and maintained at single-cell state. The tumor-repopulating cells of B16-F1 melanoma were inoculated in 3D fibrin gel medium (90-Pa) for 5 days, with 0.1% DMSO as the negative control group, Tazarotene and Bexarotene as the positive control drugs respectively, […] for 5 days. The colony tumor size was measured and calculated, and the inhibition rate of each drug on the tumor-repopulating cells of B16-F1 melanoma was calculated. The results of inhibitory activity of the compound of the present invention on the proliferation of tumor-repopulating cells of B16-F1 melanoma were shown in Table 2 below.

The mark [3] stands for this setting: B16-F1, 120 h, 10 μM, incubated 5 days, colony tumor size, read-out: Inhibition rate on TRCs of B16-F1 melanoma at a concentration of 10 μM (%).
The mark [4] stands for this setting: B16-F1, 10 μM (Table 3), read-out: Inhibition rate on TRCs of B16-F1 melanoma at a concentration of 10 μM/%.

Like-named read-outs stand apart in the source and are kept apart here.

For the molecule `CC1(C)CC=C(c2ccccc2)c2cc(/C=C/c3ccc(C(=O)O)cc3)ccc21` [BMS-453, reference compound], in data set [1] (mouse, in vivo), the “body weight of the mice” value is recorded as “significantly reduced”, the “dissection of peritoneal/abdominal cavity” value is listed as “a large number of abnormal foamy structure appeared in the peritoneal cavity” and the toxic side effects entry is “a greater toxic side effect”. Further, the mice died entry in data set [1] (repeated experiment, on the 20th day) is on record as “all the mice in the positive control group died”. Regarding `CCOC(=O)c1ccc(C#Cc2ccc3c(c2)C(C)(C)CC[S+]3[O-])c(F)c1` (centres unmarked) [WYC-312, ethyl 3-fluoro-4-((4,4-dimethyl-1-oxothiochroman-6-yl)ethynyl)benzoate], in data set [2] (setting [3]), the inhibition at 10 µM worked out at 71%. With `CCOC(=O)c1ccc(C#Cc2ccc3c(c2)C(C)(C)CCS3)c(F)c1F` [WYC-313, ethyl 2,3-difluoro-4((4,4-dimethylthiochroman-6-yl)ethynyl)benzoate], the inhibition at 10 µM in data set [2] (setting [3]) turned out to be 62.2%. Consider `CC1(C)CCSc2ccc(C#Cc3ccc(C(=O)O)c(F)c3F)cc21` [WYC-314, 2,3-difluoro-4((4,4-dimethylthiochroman-6-yl)ethynyl)benzoic Acid], for which the inhibition at 10 µM in data set [2] (setting [3]) stood at 70.1%. Turning to `CCOC(=O)c1ccc(C#Cc2ccc3c(c2)C(C)(C)CC[S+]3[O-])c(F)c1F` (centres unmarked) [WYC-315, ethyl 2,3-difluoro-4-((4,4-dimethyl-1-oxothiochroman-6-yl)ethynyl)benzoate], the inhibition at 10 µM in data set [2] (setting [3]) is 70.1%.

Take `COC(=O)c1ccc(C#Cc2ccc3c(c2)C(C)(C)CCS3)c(NC(C)=O)c1` [WYC-316, methyl 3-acetamido-4-((4,4-dimethylthiochroman-6-yl)ethynyl)benzoate]: the inhibition at 10 µM in data set [2] (setting [3]) turned out to be 76.2%. For `CCOC(=O)c1ccc(C#Cc2ccc3c(c2)C(C)(C)CCS3)c(NC(C)=O)c1` [WYC-317, ethyl 3-acetamido-4-((4,4-dimethylthiochroman-6-yl)ethynyl)benzoate], the inhibition at 10 µM in data set [2] (setting [3]) was determined as 86.4%. As to `CCOC(=O)c1ccc(C#Cc2ccc3c(c2)C(C)(C)CC[S+]3[O-])c(NC(C)=O)c1` (centres unmarked) [WYC-318, ethyl 3-acetamido-4-((4,4-dimethyl-1-oxothiochroman-6-yl)ethynyl)benzoate], the inhibition at 10 µM in data set [2] (setting [3]) was 60%.

As for `CC(=O)Nc1cc(C(=O)O)ccc1C#Cc1ccc2c(c1)C(C)(C)CCS2` [WYC-319, 3-acetamido-4-((4,4-dimethylthiochroman-6-yl)ethynyl)benzoic Acid], the inhibition at 10 µM in data set [2] (setting [3]) is 65.8%. With `CCOC(=O)c1cnc(C#Cc2ccc3c(c2)C(C)(C)CCS3(=O)=O)nc1` [WYC-320, ethyl 2-((4,4-dimethyl-1,1-dioxothiochroman-6-yl)ethynyl)pyrimidin-5-carboxylate], the inhibition at 10 µM in data set [2] (setting [3]) and in data set [2] (setting [4]) was 92.6% throughout. In addition, the IC50 in data set [2] was determined as 1.65 µM.

On to `COC(=O)c1ccc(C#Cc2ccc3c(c2)C(C)(C)CC[S+]3[O-])c(NC(C)=O)c1` (centres unmarked) [WYC-321, methyl 3-acetamido-4-((4,4-dimethyl-1-oxothiochroman-6-yl)ethynyl)benzoate], for which, in data set [2] (setting [3]), the inhibition at 10 µM was found to be 78.2%. Turning to `CCOC(=O)c1cnc(C#Cc2ccc3c(c2)C(C)(C)CCS3)cn1` [WYC-322, ethyl 5-((4,4-dimethylthiochroman-6-yl)ethynyl)pyrazin-2-carboxylate], the inhibition at 10 µM in data set [2] (setting [3]) stood at 78.8%. For `CC1(C)CCSc2ccc(C#Cc3cnc(C(=O)O)cn3)cc21` [WYC-323, 5-((4,4-dimethylthiochroman-6-yl)ethynyl)pyrazin-2-carboxylic Acid], the inhibition at 10 µM in data set [2] (setting [3]) was 76%. As for `CCOC(=O)c1cnc(C#Cc2ccc3c(c2)C(C)(C)CC[S+]3[O-])cn1` (centres unmarked) [WYC-324, ethyl 5-((4,4-dimethyl-1-oxothiochroman-6-yl)ethynyl)pyrazin-2-carboxylate], the inhibition at 10 µM in data set [2] (setting [3]) worked out at 85.1%. Consider `CCOC(=O)c1ccc(C#Cc2ccc3c(c2)C(C)(C)CCS3)cc1Cl` [WYC-325, ethyl 2-chloro-4-((4,4-dimethylthiochroman-6-yl)ethynyl)benzoate], for which the inhibition at 10 µM in data set [2] (setting [3]) turned out to be 74.2%. Take `CCOC(=O)c1ccc(C#Cc2ccc3c(c2)C(C)(C)CC[S+]3[O-])cc1Cl` (centres unmarked) [WYC-326, ethyl 2-chloro-4-((4,4-dimethyl-1-oxothiochroman-6-yl)ethynyl)benzoate]: the inhibition at 10 µM in data set [2] (setting [3]) is 73.4%. Take `CC1(C)CCSc2ccc(C#Cc3ccc(C(=O)O)c(Cl)c3)cc21` [WYC-327, 2-chloro-4-((4,4-dimethylthiochroman-6-yl)ethynyl)benzoic Acid]: in data set [2] (setting [3]), the inhibition at 10 µM stood at 75.7%. Turning to `CC1(C)CCC(C)(C)c2cc(C#Cc3cnc(C#N)nc3)ccc21` [WYC-329, 2-cyano-5-((5,5,8,8-tetramethyl-5,6,7,8-tetrahydronaphth-2-yl)ethynyl)pyrimidine], the inhibition at 10 µM in data set [2] (setting [3]) and in data set [2] (setting [4]) was 94.5% each time. In addition, the IC50 in data set [2] is 0.5 µM. Turning to `CC1(C)CCC(C)(C)c2cc(C#Cc3ccc(C(=O)O)c(N)c3)ccc21` [WYC-330, 2-amino-4-((5,5,8,8-tetramethyl-5,6,7,8-tetrahydronaphth-2-yl)ethynyl)benzoic Acid], the inhibition at 10 µM in data set [2] (setting [3]) was determined as 79%. In the case of `COC(=O)c1ccc(C#Cc2ccc3c(c2)C(C)(C)CCC3(C)C)c(O)c1` [WYC-332, methyl 3-hydroxy-4-((5,5,8,8-tetramethyl-5,6,7,8-tetrahydronaphth-2-yl)ethynyl)benzoate], the inhibition at 10 µM in data set [2] (setting [3]) was 55.9%.

On to `CC1(C)CCC(C)(C)c2cc(C#Cc3ccc(C#N)cn3)ccc21` [WYC-333, 2-((5,5,8,8-tetramethyl-5,6,7,8-tetrahydronaphth-2-yl)ethynyl)-5-cyanopyridine], for which the inhibition at 10 µM in data set [2] (setting [3]) was 69.1%. Same read-out and setting: the value for `CCOC(=O)c1ncc(C#Cc2ccc3c(c2)C(C)(C)CCC3(C)C)cn1` [WYC-334, ethyl 5-((5,5,8,8-tetramethyl-5,6,7,8-tetrahydronaphth-2-yl)ethynyl)pyrimidin-2-carboxylate] was 80.6%; that for `CC1(C)CCC(C)(C)c2cc(C#Cc3ccc(C(=O)O)c(O)c3)ccc21` [WYC-335, 2-hydroxy-4-((5,5,8,8-tetramethyl-5,6,7,8-tetrahydronaphth-2-yl)ethynyl)benzoic Acid] was 86.9%; that for `CC(=O)Nc1cc(C#Cc2ccc3c(c2)C(C)(C)CCC3(C)C)ccc1C(=O)O` [WYC-336, 2-acetyl amino-4-((5,5,8,8-tetramethyl-5,6,7,8-tetrahydronaphth-2-yl)ethynyl)benzoic Acid] was 86.7%. For `CC1(C)CCC(C)(C)c2cc(C#Cc3ccc(C(=O)O)nc3)ccc21` [WYC-337, 5-((5,5,8,8-tetramethyl-5,6,7,8-tetrahydronaphth-2-yl)ethynyl)pyridin-2-carboxylic Acid], the inhibition at 10 µM in data set [2] (setting [3]) is 87.5%. Turning to `COC(=O)c1ncc(C#Cc2ccc3c(c2)C(C)(C)CCC3(C)C)cn1` [WYC-338, methyl 5-((5,5,8,8-tetramethyl-5,6,7,8-tetrahydronaphth-2-yl)ethynyl)pyrimidin-2-carboxylate], the inhibition at 10 µM in data set [2] (setting [3]) was determined as 69%. `CCOC(=O)c1ccc(C#Cc2ccc3c(c2)C(C)(C)CCC3(C)C)cn1` [WYC-341, ethyl 5-((5,5,8,8-tetramethyl-5,6,7,8-tetrahydronaphth-2-yl)ethynyl)pyridin-2-carboxylate]: in data set [2] (setting [3]), the inhibition at 10 µM is 87%.

Consider `CCOC(=O)c1cnc(C#Cc2ccc3c(c2)C(C)(C)CCC3(C)C)cn1` [WYC-342, ethyl 5-((5,5,8,8-tetramethyl-5,6,7,8-tetrahydronaphth-2-yl)ethynyl)pyrazin-2-carboxylate], for which the inhibition at 10 µM in data set [2] (setting [3]) came to 77.6%.

(Values after patent publication US10556879B2, “Retinoid compound, preparation method therefor, intermediates thereof and application thereof” (SHANGHAI INSTITUTE OF ORGANIC CHEMISTRY, CHINESE ACADEMY OF …, priority 2016, dated 2020).)
